What was measured:
HBO-KAT7 = HBO-KAT7 (Homo sapiens, UniProt O95251); assay: Acetyltransferase biochemical assay (AlphaScreen), KAT7
TIP60-KAT5 = TIP60-KAT5 (Homo sapiens, UniProt Q92993); assay: Acetyltransferase biochemical assay (AlphaScreen), KAT5
MOZ-KAT6A = MOZ-KAT6A (Homo sapiens, UniProt Q92794, A567V); assay: Acetyltransferase biochemical assay (AlphaScreen), KAT6A
Chain of MOZ-KAT6A (Q92794 with tags, fused parts or gaps A567V): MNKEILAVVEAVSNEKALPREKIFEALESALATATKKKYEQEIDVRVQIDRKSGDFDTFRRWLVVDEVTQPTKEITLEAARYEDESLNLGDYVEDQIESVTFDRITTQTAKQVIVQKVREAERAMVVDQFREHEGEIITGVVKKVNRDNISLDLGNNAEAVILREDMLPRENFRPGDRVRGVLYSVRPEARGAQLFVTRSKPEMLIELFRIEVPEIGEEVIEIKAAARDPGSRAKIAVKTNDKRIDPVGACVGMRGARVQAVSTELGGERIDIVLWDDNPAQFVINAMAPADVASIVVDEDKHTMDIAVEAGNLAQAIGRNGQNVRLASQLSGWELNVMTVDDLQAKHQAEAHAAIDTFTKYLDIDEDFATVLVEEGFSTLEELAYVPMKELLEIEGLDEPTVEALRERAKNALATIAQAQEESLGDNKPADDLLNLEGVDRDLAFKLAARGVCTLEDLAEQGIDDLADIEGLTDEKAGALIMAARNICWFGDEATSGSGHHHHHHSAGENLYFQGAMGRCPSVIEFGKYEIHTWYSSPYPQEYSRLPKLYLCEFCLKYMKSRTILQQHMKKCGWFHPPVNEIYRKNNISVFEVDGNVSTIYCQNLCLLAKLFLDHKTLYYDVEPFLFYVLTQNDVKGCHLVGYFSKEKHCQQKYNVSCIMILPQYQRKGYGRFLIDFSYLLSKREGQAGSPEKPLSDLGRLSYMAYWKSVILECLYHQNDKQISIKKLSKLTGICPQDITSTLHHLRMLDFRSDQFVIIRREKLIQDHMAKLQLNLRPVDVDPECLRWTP

Chain of HBO-KAT7 (O95251 with tags, fused parts or gaps): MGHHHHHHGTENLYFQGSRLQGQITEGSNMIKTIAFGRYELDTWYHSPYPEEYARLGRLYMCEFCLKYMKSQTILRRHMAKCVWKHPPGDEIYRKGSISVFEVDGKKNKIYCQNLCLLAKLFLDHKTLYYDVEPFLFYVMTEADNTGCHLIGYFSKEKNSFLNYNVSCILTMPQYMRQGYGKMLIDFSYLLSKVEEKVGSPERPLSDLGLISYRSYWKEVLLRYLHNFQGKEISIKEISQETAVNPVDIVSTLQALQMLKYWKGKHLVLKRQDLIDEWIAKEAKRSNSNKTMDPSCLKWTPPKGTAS
Chain of TIP60-KAT5 (Q92993 with tags, fused parts or gaps isoform Q92993-2): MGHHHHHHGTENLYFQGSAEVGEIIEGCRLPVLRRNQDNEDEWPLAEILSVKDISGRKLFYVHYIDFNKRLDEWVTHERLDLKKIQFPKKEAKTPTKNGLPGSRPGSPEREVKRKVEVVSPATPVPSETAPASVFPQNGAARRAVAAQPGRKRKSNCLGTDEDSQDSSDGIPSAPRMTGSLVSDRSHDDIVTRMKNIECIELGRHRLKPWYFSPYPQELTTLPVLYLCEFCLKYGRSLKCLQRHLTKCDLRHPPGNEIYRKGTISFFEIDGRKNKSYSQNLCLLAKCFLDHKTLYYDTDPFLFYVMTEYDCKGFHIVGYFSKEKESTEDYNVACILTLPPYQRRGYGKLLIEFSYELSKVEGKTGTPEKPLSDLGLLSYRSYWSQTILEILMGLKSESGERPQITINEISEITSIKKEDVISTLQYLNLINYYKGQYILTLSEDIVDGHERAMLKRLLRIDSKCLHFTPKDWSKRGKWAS

SMILES | IC50 (HBO-KAT7) [µM] | IC50 (TIP60-KAT5) [µM] | IC50 (MOZ-KAT6A) [µM]
O=S(=O)(Nc1noc2ccccc12)c1ccc2ccccc2c1 [Example 66, N-(benzo[d]isoxazol-3-yl)naphthalene-2-sulfonamide] | 114 | 123 | 14.6
COc1ccc(-c2ccno2)cc1S(=O)(=O)Nc1noc2ccccc12 [Example 55, N-(benzo[d]isoxazol-3-yl)-5-(isoxazol-5-yl)-2-methoxybenzene sulfonamide] | > 125 | > 125 | 103
O=S(=O)(Nc1noc2cccc(Cl)c12)c1ccc(S(F)(F)(F)(F)F)cc1 [Example 35, N-(4-chlorobenzo [d]isoxazol-3-yl)-4-(pentafluoro-λ^6-sulfanyl)benzene sulfonamide] | 8.75 | 33.8 | 4.63
CCc1ccc(OC)c(S(=O)(=O)Nc2noc3cccc(Br)c23)c1 [Example 129] | 1.32 | 18.5 | 0.772
COc1cc(OC)c(S(=O)(=O)Nc2noc3cccc(OC)c23)c(OC)c1 [Example 85, 2,4,6-trimethoxy-N-(4-methoxybenzo[d]isoxazol-3-yl)benzene sulfonamide] | 1.77 | 28.5 | 3.87
CCc1ccc(OC)c(S(=O)(=O)Nc2noc3ccc(Br)c(OC)c23)c1 [Example 108, N-(5-bromo-4-methoxybenzo[d]isoxazol-3-yl)-5-ethyl-2-methoxy benzenesulfonamide] | 2.04 | 41.9 | 3.09
CCc1ccc(CC)c(S(=O)(=O)Nc2noc3ccccc23)c1 [Example 56, N-(benzo[d]isoxazol-3-yl)-2,5-diethylbenzene sulfonamide] | > 125 | > 125 | 72.8
O=S(=O)(Nc1noc2ccccc12)c1ccc(Br)cn1 [Example 68, N-(benzo[d]isoxazol- -3-yl)-5-bromopyridine-2-sulfonamide] | > 125 | > 125 | 85.1

Continued, values first:

IC50 (HBO-KAT7) [µM] | IC50 (TIP60-KAT5) [µM] | IC50 (MOZ-KAT6A) [µM] | SMILES
10 | 34.3 | 2.14 | CCOc1ccc2c(NS(=O)(=O)c3cc(CC)ccc3OC)noc2c1 [Example 139]
0.632 | 14.9 | 0.709 | CCc1ccc(OC)c(S(=O)(=O)Nc2noc3cccc(CC)c23)c1 [Example 199]
> 125 | 124 | 75.2 | CCc1ccc(OC)c(S(=O)(=O)Nc2noc3ccc(CNC(C)=O)cc23)c1 [Example 228, N-((3-((5-Ethyl-2-methoxyphenyl)sulfonamido)benzo[d]isoxazol-5-yl)methyl)acetamide]
1.11 | 30.2 | 2.13 | COc1cccc(OC)c1S(=O)(=O)Nc1noc2cc(C)cc(OC)c12 [Example 244, 2,6-Dimethoxy-N-(4-methoxy-6-methylbenzo[d]isoxazol-3-yl)benzenesulfonamide]
16.6 | > 125 | 4.47 | COc1cccc(OCC2CC2)c1S(=O)(=O)Nc1noc2cccc(OC)c12 [Example 215, 2-(Cyclopropylmethoxy)-6-methoxy-N-(4-methoxybenzo[d]isoxazol-3-yl)benzenesulfonamide]
3.68 | 5.11 | 2.89 | CCc1ccc(OC)c(S(=O)(=O)Nc2noc3cc(Br)ccc23)c1 [Example 138]
40.1 | 69.9 | 9.23 | CCc1ccc(OC)c(S(=O)(=O)Nc2noc3c(CC)cccc23)c1 [Example 188]
9.9 | 47.8 | 2.26 | CCc1ccc(OC)c(S(=O)(=O)Nc2noc3cc(-c4ccccn4)ccc23)c1 [Example 140, 5-Ethyl-2-methoxy-N-(6-(pyridin-2-yl)benzo[d]isoxazol-3-yl)benzenesulfonamide]
4.65 | 28.5 | 1.63 | CCc1ccc(OC)c(S(=O)(=O)Nc2noc3ccc(C4CC4)c(OC)c23)c1 [Example 208]
